Data: US20030065030A1, “Autonomic controlling agents and health drinks and foods” (priority 2001, published 2003)

What was measured:
[1] = test system: autonomic nervous system in humans; assay: autonomic nerve activity in humans by ECG R-R interval power spectral analysis; format: in vivo, human; settings: for mean promotion ratio of the overall autonomic nerve activity / mean promotion ratio of the parasympathetic nerve activity: responding subjects
Protocol: The resting ECG of the subjects was measured for 5 minutes, and ECG was measured for 5 minutes at 30 minutes and 60 minutes after drinking the test sample, respectively. In order to avoid influences by changes in respiration, ECG was measured when the subjects were forced to respire at 15 respirations per minute. The intervals between R-waves (R-R intervals) of the ECG were determined, and were subjected to a power spectral analysis according to the program prepared by Moritani et al. (J. Sport Med. Sci. 7:31-39, 1993). For cycle components, in conformity to the classification criteria of the Cardiology society in Europe and the USA (Circulation 93:1043-1065, 1996), heart rate variation was divided into the low frequency (0.03-0.15 Hz) and the high frequency (0.15-0.4 Hz).
Carnosine was weighed out on a chartula at 0.04 mg, 0.2 mg, 1 mg, 5 mg, and 25 mg/capita. For 0.2 mg, one mg of a 1:4 mixture of carnosine and starch powder (⅕ dilution) was weighed out. For 0.04 mg, one mg of a 1:4 mixture of carnosine and starch powder that further mixed with the starch powder at 1:4 ( 1/25 dilution) was weighed out. Carnosine was taken by licking the one weighed out on chartula.
There were 8 subjects, 21-51 years old (33.0 +/− 11.95 years old) and weighing 54-73.5 kg (64.3 +/− 7.01 kg), and among them, the experiments of the 0.04 mg and the 0.2 mg were performed on six subjects, the experiments of the 1 mg and the 5 mg were performed on 8 subjects, and the experiment of the 25 mg was performed on 5 subjects.

[2] = test system: sympathetic nerve adrenal branches; assay: efferent neural activity of the sympathetic nerve adrenal branches after intravenous carnosine; format: in vivo, rat; settings: 100 ng intravenous
Protocol: (§1) According to the method of Niijima (Neurobiology 3:299-307, 1995), the effect of carnosine on the autonomic nerve activity was investigated. Wistar male rats, weighing about 300 g, that had been kept in an environment of room temperature (24° C.) and free access to the feed were fasted (with free access to water) 12 hours before the start of the experiment. Rats were subjected to abdominal section under urethane anesthesia (1 g/kg body weight, intraperitoneal administration), neurofilaments were isolated from central cut ends of a sympathetic nerve branch or a vagal nerve branch, and the efferent neural activity was recorded via an AC amplifier. The neural activity was observed using an oscilloscope and was recorded into magnetic tape. At the same time, the time course of the neural activity was recorded with a pen-type recorder via a rate meter with a reset time set at 5 seconds.
(§2) Carnosine (100 ng or 1,000 ng dissolved in 0.1 ml physiological saline) was intravenously administered. As the control, physiological saline (0.1 ml) was alone administered intravenously.
(§3) The effect of carnosine administration was calculated as the neural activity count (%) after carnosine administration relative to neural activity count (mean value of 10 activity counts during 5 minutes) before administration set at 100. Five rats were used for each experiment. Data were tested with ANOVA (p<0.05) and were expressed as mean +/− standard error.

2DG hyperglycemic rats = assay: anti-hyperglycemia in the 2DG hyperglycemic rats; format: in vivo, rat
From the text: Since blood glucose levels are expected to be reduced when the activity of the autonomic nervous system is controlled by carnosine at a low dose, the effect of carnosine on anti-hyperglycemia in the 2DG hyperglycemic rats was investigated according to the method of Chun et al. (Brain Research 809:165-174, 1998). Wistar male rats (initial weight, about 250 g) were used that had been acclimated for at least 10 days to an environment in a room illuminated with an incandescent light of 80 lux on the average for 12 hours at room temperature (24 +/− 1° C.) with free access to the feed.
Three days before the experiment, rats under anesthesia with pentobarbital (35 mg/kg body weight, intraperitoneal administration) received the insertion of a cardiac catheter comprising a silastic tubing (Dow Corning, Midland, Mich.) and a polyethylene tubing (Clay Adams, Parsippany, N.J.) into the right atrium and a polyethylene tubing into the right lateral cerebral ventricle (LCV). On the day of the experiment, carnosine dissolved in physiological saline was administered to the rats intracranially (0.01 ml) or intraperitoneally (0.1 ml) with the simultaneous administration into the rat LCV of 80 μmol 2-deoxy-D-glucose (2DG, 0.01 ml). The control rats received physiological saline instead of carnosine and an artificial cerebrospinal fluid in stead of 2DG, each at the same amount.
Sixty minutes after the administration of 2DG into the LCV, 300 μl of blood was taken via the cardiac catheter and the plasma level of glucose was determined. The glucose concentrations in the plasma were measured using the Fuji-Dri-chem system (Fuji Film Tokyo) according to the glucose oxidase method. Changes in plasma concentrations of glucose were expressed as a ratio (%) relative to the control value at 90 minutes after 2DG administration set at 100. Four or five rats were used in the experiments. Data were tested with ANOVA (p<0.05) and were expressed as mean +/− standard error.

[3] = test system: sympathetic nerve renal branches; assay: efferent neural activity of the sympathetic nerve renal branches after intravenous carnosine; format: in vivo, rat; settings: 1,000 ng intravenous
Protocol: as §1, §2, §3

[4] = test system: vagal nerve celiac branches; assay: efferent neural activity of the vagal nerve celiac branches after intravenous carnosine; format: in vivo, rat; settings: 100 ng intravenous
Protocol: as §1, §2, §3
In order to study the effect on the neural activity of the vagal nerve, the efferent neural activity of the vagal nerve celiac branches was recorded.

[5] = test system: carnosine-degrading enzyme; assay: carnosine-degrading enzyme activity in the plasma of rats; format: in vitro ADME
[6] = 0.04 mg oral ingestion, the one responding subject
[7] = 30 minutes after administration
[8] = 60 minutes after administration
[9] = 90 minutes after administration

Q: With `NCCC(=O)N[C@@H](Cc1cnc[nH]1)C(=O)O` [carnosine, β-alanyl-L-histidine] as the compound, how does the “ratio of those who exhibited promotion (more than 200% of the previous value of the parasympathetic nerve activity)” value ([1]; 0.04 mg oral ingestion) read?
A: 16.7%

Q: What about the “promotion ratio of the overall autonomic nerve activity” value [1, 6] of the same compound?
A: 195%

Q: What about the “promotion ratio of the parasympathetic nerve activity” value [1, 6] of the same compound?
A: 249%

Q: What about the “ratio of those who exhibited promotion (more than 200% of the previous value of the parasympathetic nerve activity)” value ([1]; 0.2 mg oral ingestion) of the same compound?
A: 66.7%

Q: And the “mean promotion ratio of the overall autonomic nerve activity” value ([1]; 0.2 mg oral ingestion)?
A: 329%

Q: And the “mean promotion ratio of the parasympathetic nerve activity” value ([1]; 0.2 mg oral ingestion)?
A: 436%

Q: What about the “ratio of those who exhibited promotion (more than 200% of the previous value of the parasympathetic nerve activity)” value ([1]; 1 mg oral ingestion) of the same compound?
A: 37.5%

Q: What about the “mean promotion ratio of the overall autonomic nerve activity” value ([1]; 1 mg oral ingestion) of the same compound?
A: 190%

Q: What about the “mean promotion ratio of the parasympathetic nerve activity” value ([1]; 1 mg oral ingestion) of the same compound?
A: 259%

Q: What about the “ratio of those who exhibited promotion (more than 200% of the previous value of the parasympathetic nerve activity)” value ([1]; 5 mg oral ingestion) of the same compound?
A: 25.0%

Q: What about the “mean promotion ratio of the overall autonomic nerve activity” value ([1]; 5 mg oral ingestion) of the same compound?
A: 410%

Q: What about the “mean promotion ratio of the parasympathetic nerve activity” value ([1]; 5 mg oral ingestion) of the same compound?
A: 472%

Q: And the “ratio of those who exhibited promotion (more than 200% of the previous value of the parasympathetic nerve activity)” value ([1]; 25 mg oral ingestion)?
A: 0%

Q: And the “suppression rate of efferent neural activity of the sympathetic nerve adrenal branches” value [2, 7]?
A: 31.3%

Q: What about the “suppression rate of efferent neural activity of the sympathetic nerve adrenal branches” value [2, 8] of the same compound?
A: 46.9%

Q: And the “suppression rate of efferent neural activity of the sympathetic nerve adrenal branches” value [2, 9]?
A: 58.1%

Q: And the effect on hyperglycemia (2DG hyperglycemic rats; 10 ng intracranially administered)?
A: suppressed hyperglycemia

Q: And the “suppression rate of hyperglycemia (plasma glucose)” value (shortened to “suppression rate of hyperglycemia”) (2DG hyperglycemic rats; 10 ng intraperitoneal)?
A: 16.0%

Q: What about the “suppression rate of hyperglycemia” value (2DG hyperglycemic rats; 100 ng intraperitoneal) of the same compound?
A: 31.5%

Q: And the “suppression rate of hyperglycemia” value (2DG hyperglycemic rats; 1,000 ng intraperitoneal)?
A: 26.8%

Q: And the “suppression rate of hyperglycemia” value (2DG hyperglycemic rats; 10,000 ng intraperitoneal)?
A: 27.6%

Q: What about the “suppression rate of hyperglycemia” value (2DG hyperglycemic rats; 100,000 ng intraperitoneal) of the same compound?
A: 21.9%

Q: And the hypoglycemic action (2DG hyperglycemic rats; high dose of 1,000,000 ng (3.3 mg/kg body weight) intraperitoneal)?
A: did not show any hypoglycemic action

Q: What about the “suppression rate of efferent neural activity of the sympathetic nerve renal branches” value [3, 7] of the same compound?
A: 29.7%

Q: And the “suppression rate of efferent neural activity of the sympathetic nerve renal branches” value [3, 8]?
A: 32.8%

Q: What about the “suppression rate of efferent neural activity of the sympathetic nerve renal branches” value [3, 9] of the same compound?
A: 28.0%

Q: What about the “promotion rate of efferent neural activity of the vagal nerve celiac branches” value (“promotion rate” for short) [4, 7] of the same compound?
A: 15.4%

Q: And the “promotion rate” value [4, 8]?
A: 28.6%

Q: What about the “promotion rate” value [4, 9] of the same compound?
A: 48.7%

Q: And the carnosine-degrading enzyme activity [5]?
A: 0.01 to 0.04 µmol/h/mL
